Measured values from patent US20170252442A1, “PHOTOHEXER COMPOUNDS AND PHARMACEUTICAL COMPOSITION AND USE THEREOF” (RAINBOW PHARMATECH LLC, priority 2014, published 2017).

Key:
SGC7901 cells = test: MTT assay, photodynamic therapy on SGC7901 cells; assay type: cell-based, human
Text: (§1) The cells in logarithmic growth phase were collected and inoculated on 24-well culture plates. When reaching 70%-80% confluence, cells were divided randomly into the following groups: control (the parallel control group without photosensitizer and irradiation), irradiation (irradiation treatment alone without photosensitizer); (photosensitizer treatment alone without irradiation), photodynamic treatment (treatment by photosensitizer in combination with irradiation). For the photosensitizer alone treatment group and photodynamic treatment group, an appropriate amount of Photohexer-1 (P-1) or Photohexer-2 (P-2) was respectively added away from light to give a final concentration of 0.8, 1.6, 3.2, 6.4 μM. Each group set 3 replicates. Cells were incubated with the active agent, different treatments were carried out according to the grouping. […] After treatment and digestion of each group of cells, it was inoculated into a 96-well plate at 100 μL/well, and four wells were set for each treatment. MTT assay was performed after 24 h from inoculation: 20 μL MTT solution was added to each well under the condition away from light, and the culture was continued for 4 hours. 150 μL DMSO was added to each well after discarding the supernatant. After 15 min of dissolution, the absorbance value (OD value) was measured using a microplate reader and the relative survival rate of cells was calculated according to the following formula: […]

SW-480 cells = test: MTT assay, photodynamic therapy on SW-480 cells; assay type: cell-based, human
Text: as §1

SW-620 cells = test: MTT assay, photodynamic therapy on SW-620 cells; assay type: cell-based, human
Text: as §1

MCF-7 cells = test: MTT assay, photodynamic therapy on MCF-7 cells; assay type: cell-based, human
Text: as §1

MCF-7/ADR cells = test: MTT assay, photodynamic therapy on MCF-7/ADR cells; assay type: cell-based, human
Text: as §1

[1] = Solubility determination in water; assay type: physicochemical; conditions: each ml of water; room temperature; read-out: solubility in water (amount dissolved by each ml of water)
Protocol: The solubility of Photohexer-1 and Photohexer-2 in water was determined by conventional methods in the art.

[2] = 0.8 μM alone treatment, without irradiation
[3] = 0.8 μM combined with 2.6 J/cm^2 light irradiation
[4] = 0.8 μM combined with 5.2 J/cm^2 light irradiation
[5] = 0.8 μM combined with 10.4 J/cm^2 light irradiation
[6] = 1.6 μM alone treatment, without irradiation
[7] = 1.6 μM combined with 2.6 J/cm^2 light irradiation
[8] = 1.6 μM combined with 5.2 J/cm^2 light irradiation
[9] = 1.6 μM combined with 10.4 J/cm^2 light irradiation
[10] = 3.2 μM alone treatment, without irradiation
[11] = 3.2 μM combined with 2.6 J/cm^2 light irradiation
[12] = 3.2 μM combined with 5.2 J/cm^2 light irradiation
[13] = 3.2 μM combined with 10.4 J/cm^2 light irradiation
[14] = 6.4 μM alone treatment, without irradiation
[15] = 6.4 μM combined with 2.6 J/cm^2 light irradiation
[16] = 6.4 μM combined with 5.2 J/cm^2 light irradiation
[17] = 6.4 μM combined with 10.4 J/cm^2 light irradiation

C=Cc1c(C)c2cc3nc(cc4[nH]c(cc5nc(cc1[nH]2)C(C)=C5C(C)OCCCCCC)c(C)c4CCC(=O)[O-])C(CCC(=O)[O-])=C3C.[Na+].[Na+] (stereo not drawn) [Photohexer P-2, 4-(1-hexyloxyethyl)-6,7-bis(propionatesodium)-1,3,5,8-tetramethyl-2-vinylporphyrin]
photodynamic activity compared between P-1 and P-2 (SGC7901 cells): better than P-1 | Cell survival rate (SGC7901 cells; [2]): 100.80 ± 0.91% | Cell survival rate (SGC7901 cells; [3]): 83.27 ± 0.82% | Cell survival rate (SGC7901 cells; [4]): 76.47 ± 1.65% | Cell survival rate (SGC7901 cells; [5]): 66.13 ± 0.60% | Cell survival rate (SGC7901 cells; [6]): 97.25 ± 1.34% | Cell survival rate (SGC7901 cells; [7]): 70.77 ± 7.19% | Cell survival rate (SGC7901 cells; [8]): 60.00 ± 9.82% | Cell survival rate (SGC7901 cells; [9]): 49.32 ± 12.57% | Cell survival rate (SGC7901 cells; [10]): 82.72 ± 0.54% | Cell survival rate (SGC7901 cells; [11]): 52.91 ± 1.96% | Cell survival rate (SGC7901 cells; [12]): 41.72 ± 0.35% | Cell survival rate (SGC7901 cells; [13]): 34.58 ± 0.66% | killing effect of photodynamic therapy (SGC7901 cells; drug-dose and light-intensity dependent): obvious killing effect | photodynamic activity compared between P-1 and P-2 (SW-480 cells): better activity than P-1 | Cell survival rate (SW-480 cells; [2]): 101.79 ± 4.08% | Cell survival rate (SW-480 cells; [3]): 100.79 ± 3.76% | Cell survival rate (SW-480 cells; [4]): 96.70 ± 3.63% | Cell survival rate (SW-480 cells; [5]): 94.70 ± 4.16% | Cell survival rate (SW-480 cells; [6]): 96.97 ± 4.27% | Cell survival rate (SW-480 cells; [7]): 91.72 ± 2.89% | Cell survival rate (SW-480 cells; [8]): 87.06 ± 2.51% | Cell survival rate (SW-480 cells; [9]): 75.11 ± 3.24% | Cell survival rate (SW-480 cells; [10]): 68.15 ± 2.78% | Cell survival rate (SW-480 cells; [11]): 63.40 ± 2.24% | Cell survival rate (SW-480 cells; [12]): 53.01 ± 1.99% | Cell survival rate (SW-480 cells; [13]): 43.68 ± 2.54% | Cell survival rate (SW-480 cells; [14]): 57.31 ± 2.33% | Cell survival rate (SW-480 cells; [15]): 45.36 ± 1.22% | Cell survival rate (SW-480 cells; [16]): 42.56 ± 1.06% | Cell survival rate (SW-480 cells; [17]): 27.83 ± 1.13% | Cell survival rate (SW-620 cells; [2]): 101.79 ± 4.27% | Cell survival rate (SW-620 cells; [3]): 97.58 ± 3.86% | Cell survival rate (SW-620 cells; [4]): 96.11 ± 4.06% | Cell survival rate (SW-620 cells; [5]): 92.99 ± 3.86% | Cell survival rate (SW-620 cells; [6]): 96.58 ± 3.66% | Cell survival rate (SW-620 cells; [7]): 94.77 ± 2.99% | Cell survival rate (SW-620 cells; [8]): 90.19 ± 3.18% | Cell survival rate (SW-620 cells; [9]): 84.95 ± 3.02% | Cell survival rate (SW-620 cells; [10]): 93.16 ± 2.71% | Cell survival rate (SW-620 cells; [11]): 89.07 ± 2.34% | Cell survival rate (SW-620 cells; [12]): 82.00 ± 2.62% | Cell survival rate (SW-620 cells; [13]): 68.54 ± 2.77% | Cell survival rate (SW-620 cells; [14]): 85.21 ± 1.03% | Cell survival rate (SW-620 cells; [15]): 66.83 ± 1.12% | Cell survival rate (SW-620 cells; [16]): 58.46 ± 1.23% | Cell survival rate (SW-620 cells; [17]): 47.12 ± 1.04% | Cell survival rate (MCF-7 cells; [2]): 98.46 ± 4.62% | Cell survival rate (MCF-7 cells; [3]): 89.08 ± 3.99% | Cell survival rate (MCF-7 cells; [4]): 76.83 ± 4.26% | Cell survival rate (MCF-7 cells; [5]): 72.40 ± 4.14% | Cell survival rate (MCF-7 cells; [6]): 84.93 ± 3.16% | Cell survival rate (MCF-7 cells; [7]): 65.11 ± 2.73% | Cell survival rate (MCF-7 cells; [8]): 48.15 ± 3.12% | Cell survival rate (MCF-7 cells; [9]): 41.81 ± 3.77% | Cell survival rate (MCF-7 cells; [10]): 82.94 ± 2.28% | Cell survival rate (MCF-7 cells; [11]): 51.79 ± 2.10% | Cell survival rate (MCF-7 cells; [12]): 44.80 ± 2.22% | Cell survival rate (MCF-7 cells; [13]): 34.81 ± 2.43% | Cell survival rate (MCF-7 cells; [14]): 80.23 ± 1.03% | Cell survival rate (MCF-7 cells; [15]): 40.31 ± 1.02% | Cell survival rate (MCF-7 cells; [16]): 35.46 ± 1.02% | Cell survival rate (MCF-7 cells; [17]): 26.14 ± 1.07% | cell toxicity (MCF-7/ADR cells): significant cell toxicity | Cell survival rate (MCF-7/ADR cells; [2]): 96.93 ± 4.47% | Cell survival rate (MCF-7/ADR cells; [3]): 94.88 ± 3.94% | Cell survival rate (MCF-7/ADR cells; [4]): 92.76 ± 4.32% | Cell survival rate (MCF-7/ADR cells; [5]): 90.99 ± 4.36% | Cell survival rate (MCF-7/ADR cells; [6]): 92.26 ± 3.26% | Cell survival rate (MCF-7/ADR cells; [7]): 74.79 ± 2.77% | Cell survival rate (MCF-7/ADR cells; [8]): 67.82 ± 3.12% | Cell survival rate (MCF-7/ADR cells; [9]): 54.66 ± 3.43% | Cell survival rate (MCF-7/ADR cells; [10]): 53.84 ± 2.58% | Cell survival rate (MCF-7/ADR cells; [11]): 50.37 ± 2.13% | Cell survival rate (MCF-7/ADR cells; [12]): 48.99 ± 2.16% | Cell survival rate (MCF-7/ADR cells; [13]): 46.57 ± 2.76% | Cell survival rate (MCF-7/ADR cells; [14]): 48.88 ± 1.13% | Cell survival rate (MCF-7/ADR cells; [15]): 43.68 ± 1.06% | Cell survival rate (MCF-7/ADR cells; [16]): 41.49 ± 0.96% | Cell survival rate (MCF-7/ADR cells; [17]): 34.75 ± 1.22% | solubility [1]: ~10000 µg/mL
